The values that follow come from article PMC4182912 (Journal of medicinal chemistry, 2008).

In data set [1] the test system is P-glycoprotein (P-gp) efflux pumps. Conditions: cited from earlier work.
Data set [2] addresses recombinant hCB1r (Homo sapiens, UniProt P21554). In kind it is biochemical.

Chain of recombinant hCB1r (P21554 whole entry): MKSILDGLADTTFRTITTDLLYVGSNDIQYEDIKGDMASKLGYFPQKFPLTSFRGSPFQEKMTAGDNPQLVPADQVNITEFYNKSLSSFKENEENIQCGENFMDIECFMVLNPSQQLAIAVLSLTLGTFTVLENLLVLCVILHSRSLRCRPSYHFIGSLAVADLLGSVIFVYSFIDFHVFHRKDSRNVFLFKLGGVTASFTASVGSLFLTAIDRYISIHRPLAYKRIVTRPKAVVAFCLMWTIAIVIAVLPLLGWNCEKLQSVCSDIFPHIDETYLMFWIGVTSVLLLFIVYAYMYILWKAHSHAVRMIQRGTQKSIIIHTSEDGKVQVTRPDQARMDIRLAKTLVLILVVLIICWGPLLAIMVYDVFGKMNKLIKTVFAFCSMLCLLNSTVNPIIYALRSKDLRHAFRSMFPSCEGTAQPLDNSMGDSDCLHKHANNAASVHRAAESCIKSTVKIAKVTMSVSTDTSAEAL

Consider `CN=C(NS(=O)(=O)c1ccc(Cl)cc1)N1C[C@H](c2ccccc2)C(c2ccc(Cl)cc2)=N1` [Ligand 3, (4S)-3-(4-chlorophenyl)-N-methyl-N’-[(4-chlorophenyl)sulfonyl]-4-phenyl-4,5-dihydro-1H-pyrazole-1-carboxamidine], for which the “substrate behavior for P-gp efflux pumps” value in data set [1] is “little to no substrate behavior”. For the molecule `N#Cc1ccc(S(=O)(=O)N=C(N)N2CC(c3ccccc3)C(c3ccc(Cl)cc3)=N2)cc1` (stereo not drawn) [Ligand 12a, 3-(4-Chlorophenyl)-N’-[(4-cyanophenyl)sulfonyl]-4-phenyl-4,5-dihydro-1H-pyrazole-1-carboxamidine], in data set [2], the “eudismic ratio (CB1 receptor affinity, (-)- vs (+)-enantiomer)” value is reported as “about 35”. With `NC(=NS(=O)(=O)c1ccc(I)cc1)N1CC(c2ccccc2)C(c2ccc(Cl)cc2)=N1` (stereo not drawn) [Ligand 12c, 3-(4-Chlorophenyl)-N’-[(4-iodophenyl)sulfonyl]-4-phenyl-4,5-dihydro-1H-pyrazole-1-carboxamidine], the “eudismic ratio (CB1 receptor affinity, (-)- vs (+)-enantiomer)” value in data set [2] is around 56.
